According to US9957298B2, “Peptides as oxytocin agonists” (Hoffmann-La Roche Inc., priority 2014, dated 2018):
Starred links: 1 amine or outer side, 2 acyl side, 3 side chain; linkers in the order of their positions; H or OH if unused. Positions of bridges follow the written chain, without caps; N, C: chain ends. Non-standard residues stand in square brackets, D forms with d. Residues, ends and D or L forms follow the SMILES beside them. X1 = N[C@H](CC(=O)[*:1])C(=O)[*:2]; d(αMeL) = CC(C)C[C@@](C)(N)C(=O)O; 2Thi = N[C@@H](Cc1cccs1)C(=O)O; Cha = N[C@@H](CC1CCCCC1)C(=O)O; αMeL = CC(C)C[C@](C)(N)C(=O)O; Chg = N[C@H](C(=O)O)C1CCCCC1; Suc = O=C(CCC(=O)[*:2])[*:1]; NcPrGly = O=C(O)CNC1CC1; Dap = NC[C@H](N)C(=O)O; Aib = CC(C)(N)C(=O)O; Sar = CNCC(=O)O

Target: T1, human Oxytocin (OTR) receptor (Homo sapiens, UniProt P30559)
T1 construct: expressed in transfected cells
T1 sequence (P30559 1-389): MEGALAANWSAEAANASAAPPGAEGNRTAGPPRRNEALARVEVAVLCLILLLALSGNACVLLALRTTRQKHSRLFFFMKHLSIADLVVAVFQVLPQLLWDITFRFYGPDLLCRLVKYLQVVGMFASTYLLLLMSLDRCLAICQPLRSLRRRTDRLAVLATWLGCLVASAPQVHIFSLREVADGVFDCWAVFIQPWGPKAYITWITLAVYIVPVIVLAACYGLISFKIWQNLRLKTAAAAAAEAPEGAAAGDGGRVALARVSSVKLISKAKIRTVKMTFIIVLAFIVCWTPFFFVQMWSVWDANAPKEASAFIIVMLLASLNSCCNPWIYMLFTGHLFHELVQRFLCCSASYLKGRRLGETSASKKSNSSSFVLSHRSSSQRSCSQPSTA
Experiment: Calcium flux assay (FLIPR), agonist mode, CHO cells expressing human oxytocin receptor
Assay type: cell-based
Conditions: for EC50: CHO cells, human OTR, calcium flux FLIPR, read-out: hOT EC50; for Emax: CHO, read-out: hOT efficacy (%); for Emax / hOT efficacy (%): maximum response normalized to endogenous full agonist = 100%
Excerpt: Chines Hamster Ovary (CHO) cells were transfected with expression plasmids encoding either the human V1a, the human Oxytocin (OTR) or the human V2 receptor, the later in combination with the chimeric Gqs5 G protein to redirect the signal to Calcium flux. Stable cells were cloned by limiting dilution to yield monoclonal cell lines expressing either human V1a, human V2+Gqs5 or human OTR receptors and selected based on functional responses detected on a fluorometric imaging plate reader (FLIPR) detecting Calcium flux in the cell after receptor activation. The stable cell lines were grown in F-12 K Nutrient Mixture (Kaighns Modification), containing 10% foetal bovine serum (FBS), 1% penicillin-streptomycin, 1% L-[…], 200 ug/ml Geneticin at 37° C. in a 10% CO2 incubator at 95% humidity.
On the afternoon before the assay, cells were plated at a density of 50,000 cells/well into black 96 well plates with clear bottoms to allow cell inspection and fluorescence measurements from the bottom of each well. The density of cells was sufficient to yield a confluent monolayer the next day. Hanks balanced salt solution, without phenol red, containing 20 mM HEPES (pH 7.3) and 2.5 mM probenecid (assay buffer) was prepared fresh for each experiment. Compound dilutions were made using a Beckman Biomek 2000 laboratory automation workstation, in assay buffer containing 1% DMSO. The dye-loading buffer consisted of a final concentration of 2 μM Fluo-4-AM (dissolved in DMSO and pluronic acid) in assay buffer. The existing culture media was removed from the wells and 100 μl of the dye-loading buffer was added to each well and incubated for approximately 60 min at 37° C. in a 5% CO2 incubator at 95% humidity. Once dye-loaded, the cells were washed thoroughly on an Embla cell washer with the assay buffer to remove any unincorporated dye. Exactly 100 μl assay buffer was left in each well.
Each 96 well plate containing dye-loaded cells was placed into the FLIPR machine and the laser intensity set to a suitable level to detect low basal fluorescence. To test compounds as agonists, 25 μl diluted compound was added to the plate 10 seconds into the fluorescent measurements and fluorescent response was recorded for 5 minutes. The fluorescence data was normalized to the endogenous full agonist dose-response set at 100% for the maximum response and 0% for the minimum. Each agonist concentration-response curve was constructed using a four parameter logistic equation with Microsoft Excel XLFit as follows: Y=Minimum+((Maximum−Minimum)/(1+10^(LogEC50-X)nH)), where y is the % normalized fluorescence, minimum is the minimum y, maximum is the maximum y, logEC50 is the log10 concentration which produces 50% of the maximum induced fluorescence, x is the log10 of the concentration of the agonist compound and H is the slope of the curve (the Hill Coefficient). The maximum value gives the efficacy of the agonist test compound in percentage. The concentration of agonist that produced a half-maximal response is represented by the EC50 value, the logarithm of which yielded the pEC50 value.

Row | Compound | EC50 | Emax | hOT efficacy (%)
1 | CC[C@@H](C)[C@@H](NC(=O)CN(C(=O)[C@@H]1CNC(=O)CCC(=O)N[C@@H](Cc2ccc(O)cc2)C(=O)N[C@@H]([C@@H](C)CC)C(=O)N[C@@H](CCC(N)=O)C(=O)N[C@@H](CC(N)=O)C(=O)N1)C1CC1)C(=O)NCC(N)=O [Example 42] (YIQN[Dap][NcPrGly][dI]G-NH2; linker N-5 via Suc) | 0.37 nM | 115% | 
2 | CC[C@H](C)[C@@H]1NC(=O)[C@H](Cc2ccc(O)cc2)NC(=O)CCC(=O)NC[C@@H](C(=O)N2CCC[C@H]2C(=O)N[C@@H](CC2CCCCC2)C(=O)NCC(N)=O)NC(=O)[C@H](CC(N)=O)NC(=O)[C@H](CCC(N)=O)NC1=O [Example 18] (YIQN[Dap]P[Cha]G-NH2; linker N-5 via Suc) | 2 nM |  | 130%
3 | CC[C@H](C)[C@@H]1NC(=O)[C@H](Cc2ccc(O)cc2)NC(=O)CCC(=O)NC[C@@H](C(=O)N(C)CC(=O)N[C@@](C)(CC(C)C)C(=O)NCC(N)=O)NC(=O)[C@H](CC(N)=O)NC(=O)[C@H](CCC(N)=O)NC1=O [Example 23] (YIQN[Dap][Sar][αMeL]G-NH2; linker N-5 via Suc) | 3 nM |  | 123%
4 | CC[C@H](C)[C@@H]1NC(=O)[C@H](Cc2ccc(O)cc2)NC(=O)CCC(=O)NC[C@@H](C(=O)N(CC(=O)N[C@H](C(=O)NCC(N)=O)[C@@H](C)O)C2CC2)NC(=O)[C@H](CC(N)=O)NC(=O)[C@H](CCC(N)=O)NC1=O [Example 44] (YIQN[Dap][NcPrGly]TG-NH2; linker N-5 via Suc) | 0.9 nM | 115% | 
5 | CC[C@H](C)[C@@H]1NC(=O)[C@H](Cc2ccc(O)cc2)NC(=O)C[C@@H](N)C(=O)NC[C@@H](C(=O)N(C)CC(=O)N[C@@H](CC(C)C)C(=O)NCC(N)=O)NC(=O)[C@H](CC(N)=O)NC(=O)[C@H](CCC(N)=O)NC1=O [Example 4] (YIQN[Dap][Sar]LG-NH2; linker N-5 via X1) | 5 nM |  | 126%
6 | CC[C@H](C)[C@@H]1NC(=O)[C@H](Cc2ccc(O)cc2)NC(=O)CCC(=O)NC[C@@H](C(=O)N(C)CC(=O)N[C@@H](Cc2cnc[nH]2)C(=O)NCC(N)=O)NC(=O)[C@H](CC(N)=O)NC(=O)[C@H](CCC(N)=O)NC1=O [Example 35] (YIQN[Dap][Sar]HG-NH2; linker N-5 via Suc) | 4 nM |  | 111%
7 | CC[C@H](C)[C@@H]1NC(=O)[C@H](Cc2ccc(O)cc2)NC(=O)CCC(=O)NC[C@@H](C(=O)N2CCC[C@H]2C(=O)N[C@@H](CO)C(=O)NCC(N)=O)NC(=O)[C@H](CC(N)=O)NC(=O)[C@H](CCC(N)=O)NC1=O [Example 11] (YIQN[Dap]PSG-NH2; linker N-5 via Suc) | 3 nM |  | 128%
8 | CC[C@H](C)[C@@H]1NC(=O)[C@H](Cc2ccc(O)cc2)NC(=O)CCC(=O)NC[C@@H](C(=O)N(CC(=O)N[C@](C)(CC(C)C)C(=O)NCC(N)=O)C2CC2)NC(=O)[C@H](CC(N)=O)NC(=O)[C@H](CCC(N)=O)NC1=O [Example 39] (YIQN[Dap][NcPrGly][d(αMeL)]G-NH2; linker N-5 via Suc) | 1.3 nM | 108% | 
9 | CC[C@H](C)[C@@H]1NC(=O)[C@H](Cc2ccc(O)cc2)NC(=O)CCC(=O)NC[C@@H](C(=O)N(C)CC(=O)N[C@@H](Cc2ccccc2)C(=O)NCC(N)=O)NC(=O)[C@H](CC(N)=O)NC(=O)[C@H](CCC(N)=O)NC1=O [Example 33] (YIQN[Dap][Sar]FG-NH2; linker N-5 via Suc) | 3 nM |  | 111%
10 | CC[C@H](C)[C@@H]1NC(=O)[C@H](Cc2ccc(O)cc2)NC(=O)CCC(=O)NC[C@@H](C(=O)N(CC(=O)NC(C)(C)C(=O)NCC(N)=O)C2CC2)NC(=O)[C@H](CC(N)=O)NC(=O)[C@H](CCC(N)=O)NC1=O [Example 41] (YIQN[Dap][NcPrGly][Aib]G-NH2; linker N-5 via Suc) | 2.5 nM | 108% | 
11 | CC[C@H](C)[C@@H]1NC(=O)[C@H](Cc2ccc(O)cc2)NC(=O)CCC(=O)NC[C@@H](C(=O)N(CC(=O)N[C@H](C(=O)NCC(N)=O)C2CCCCC2)C2CC2)NC(=O)[C@H](CC(N)=O)NC(=O)[C@H](CCC(N)=O)NC1=O [Example 43] (YIQN[Dap][NcPrGly][Chg]G-NH2; linker N-5 via Suc) | 0.26 nM | 110% | 
12 | CC[C@H](C)[C@@H]1NC(=O)[C@H](Cc2ccc(O)cc2)NC(=O)CCC(=O)NC[C@@H](C(=O)N(C)CC(=O)N[C@@H](CO)C(=O)NCC(N)=O)NC(=O)[C@H](CC(N)=O)NC(=O)[C@H](CCC(N)=O)NC1=O [Example 30] (YIQN[Dap][Sar]SG-NH2; linker N-5 via Suc) | 2 nM |  | 109%
13 | CC[C@H](C)[C@@H]1NC(=O)[C@H](Cc2ccc(O)cc2)NC(=O)CCC(=O)NC[C@@H](C(=O)N2CCC[C@H]2C(=O)N[C@@H](Cc2cccs2)C(=O)NCC(N)=O)NC(=O)[C@H](CC(N)=O)NC(=O)[C@H](CCC(N)=O)NC1=O [Example 21] (YIQN[Dap]P[2Thi]G-NH2; linker N-5 via Suc) | 4 nM |  | 126%

Further compounds by falling EC50, results first:

Row | EC50 | Emax | hOT efficacy (%) | Compound
14 | 8 nM |  | 128% | CC[C@H](C)[C@@H]1NC(=O)[C@H](Cc2ccc(O)cc2)NC(=O)CCC(=O)NC[C@@H](C(=O)N2CCC[C@H]2C(=O)N[C@@H](CCC(N)=O)C(=O)NCC(N)=O)NC(=O)[C@H](CC(N)=O)NC(=O)[C@H](CCC(N)=O)NC1=O [Example 13] (YIQN[Dap]PQG-NH2; linker N-5 via Suc)
15 | 5 nM |  | 112% | CC[C@H](C)[C@@H]1NC(=O)[C@H](Cc2ccc(O)cc2)NC(=O)CCC(=O)NC[C@@H](C(=O)N(C)CC(=O)N[C@@H](CCC(N)=O)C(=O)NCC(N)=O)NC(=O)[C@H](CC(N)=O)NC(=O)[C@H](CCC(N)=O)NC1=O [Example 32] (YIQN[Dap][Sar]QG-NH2; linker N-5 via Suc)
16 | 4 nM |  | 100% | CC[C@H](C)[C@@H]1NC(=O)[C@H](Cc2ccc(O)cc2)NC(=O)CCC(=O)NC[C@@H](C(=O)N2CCC[C@H]2C(=O)N[C@@H](Cc2c[nH]c3ccccc23)C(=O)NCC(N)=O)NC(=O)[C@H](CC(N)=O)NC(=O)[C@H](CCC(N)=O)NC1=O [Example 16] (YIQN[Dap]PWG-NH2; linker N-5 via Suc)
17 | 3 nM |  | 106% | CC[C@H](C)[C@@H]1NC(=O)[C@H](Cc2ccc(O)cc2)NC(=O)CCC(=O)NC[C@@H](C(=O)N(C)CC(=O)N[C@@H](Cc2cccs2)C(=O)NCC(N)=O)NC(=O)[C@H](CC(N)=O)NC(=O)[C@H](CCC(N)=O)NC1=O [Example 34] (YIQN[Dap][Sar][2Thi]G-NH2; linker N-5 via Suc)
18 | 1 nM |  | 134% | CC[C@H](C)[C@@H]1NC(=O)[C@H](Cc2ccc(O)cc2)NC(=O)CCC(=O)NC[C@@H](C(=O)N2CCC[C@H]2C(=O)N[C@@H](CCSC)C(=O)NCC(N)=O)NC(=O)[C@H](CC(N)=O)NC(=O)[C@H](CCC(N)=O)NC1=O [Example 8] (YIQN[Dap]PMG-NH2; linker N-5 via Suc)
19 | 0.6 nM | 106% |  | CC[C@H](C)[C@@H]1NC(=O)[C@H](Cc2ccc(O)cc2)NC(=O)CCC(=O)NC[C@@H](C(=O)N(CC(=O)N[C@@H](C(=O)NCC(N)=O)C(C)C)C2CC2)NC(=O)[C@H](CC(N)=O)NC(=O)[C@H](CCC(N)=O)NC1=O [Example 40] (YIQN[Dap][NcPrGly][dV]G-NH2; linker N-5 via Suc)
